Data: PubChem BioAssay AID328 (DTP/NCI, 2004)
“And” between values parts separate entries of the source, which are not always exact repeats. Equal entries are not always repeated. Toxic doses and inconclusive results are not listed.

Tested on: BDF1 mice, P388 leukemia ip, median survival T/C
Test: NCI In Vivo Anticancer Drug Screen. Data for tumor model P388 Leukemia (intraperitoneal) in B6D2F1 (BDF1) mice
Conditions: endpoint: median survival time, higher = longer survival
Procedure, shortened: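 Reported as T/C, where T is the survival measurement in dosed animals and C the same measurement in vehicle controls.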

[1] = dose: 100.0 mg/kg/injection, schedule: Q01DX009 (ip), vehicle: saline
[2] = dose: 200.0 mg/kg/injection, schedule: Q01DX009 (ip), vehicle: saline
[3] = dose: 2.0 mg/kg/injection, schedule: Q01DX009 (ip), vehicle: saline
[4] = dose: 3.0 mg/kg/injection, schedule: Q01DX009 (ip), vehicle: saline
[5] = dose: 100.0 mg/kg/injection, schedule: Q04DX003 (ip), vehicle: saline with Tween-80
[6] = dose: 200.0 mg/kg/injection, schedule: Q04DX003 (ip), vehicle: saline with Tween-80
[7] = dose: 400.0 mg/kg/injection, schedule: Q04DX003 (ip), vehicle: saline with Tween-80

CC1OC(OC2CCCc3ccccc32)CC(N)C1O (configuration not stated)
T/C (dose: 0.25 mg/kg/injection, schedule: Q01DX009 (ip), vehicle: water): 91 % of control and 94 % of control | T/C (dose: 0.5 mg/kg/injection, schedule: Q01DX009 (ip), vehicle: water): 101 % of control and 115 % of control and 103 % of control | T/C (dose: 1.0 mg/kg/injection, schedule: Q01DX009 (ip), vehicle: water): 110 % of control [middle of 4 runs] | T/C (dose: 2.0 mg/kg/injection, schedule: Q01DX009 (ip), vehicle: water): 101 % of control and 102 % of control and 105 % of control | T/C (dose: 4.0 mg/kg/injection, schedule: Q01DX009 (ip), vehicle: water): 109 % of control [middle of 5 runs] | T/C (dose: 8.0 mg/kg/injection, schedule: Q01DX009 (ip), vehicle: water): 106 % of control and 111 % of control | T/C (dose: 16.0 mg/kg/injection, schedule: Q01DX009 (ip), vehicle: water): 98 % of control and 108 % of control | T/C (dose: 32.0 mg/kg/injection, schedule: Q01DX009 (ip), vehicle: water): 121 % of control

O=C1CC2(C(=O)N1CN(Cc1ccccc1)Cc1ccccc1)c1ccccc1-c1ccccc12
T/C (dose: 100.0 mg/kg/injection, schedule: Q04DX002 (ip), vehicle: saline with Tween-80): 87 % of control | T/C (dose: 200.0 mg/kg/injection, schedule: Q04DX002 (ip), vehicle: saline with Tween-80): 86 % of control | T/C (dose: 400.0 mg/kg/injection, schedule: Q04DX002 (ip), vehicle: saline with Tween-80): 93 % of control

CC(C)C1(C(=O)NN)OC2(O)CCCCCN2C1=O (configuration not stated)
T/C [1]: 90 % of control | T/C [2]: 90 % of control | T/C (dose: 400.0 mg/kg/injection, schedule: Q01DX009 (ip), vehicle: saline): 100 % of control

C/C=C(\C)C(=O)O[C@@H]1c2cc3c(cc2-c2c(cc(OC)c(OC)c2OC)[C@@H]2C(=O)OC[C@@H]12)OCO3
T/C (dose: 1.0 mg/kg/injection, schedule: Q01DX009 (ip), vehicle: saline + alcohol): 100 % of control | T/C (dose: 1.3 mg/kg/injection, schedule: Q01DX009 (ip), vehicle: saline): 90 % of control | T/C (dose: 2.0 mg/kg/injection, schedule: Q01DX009 (ip), vehicle: saline + alcohol): 100 % of control | T/C [3]: 100 % of control | T/C [4]: 100 % of control | T/C (dose: 4.0 mg/kg/injection, schedule: Q01DX009 (ip), vehicle: saline + alcohol): 109 % of control | T/C (dose: 5.3 mg/kg/injection, schedule: Q01DX009 (ip), vehicle: saline with Tween-80): 110 % of control | T/C (dose: 7.11 mg/kg/injection, schedule: Q01DX009 (ip), vehicle: saline + alcohol): 158 % of control | T/C (dose: 8.0 mg/kg/injection, schedule: Q01DX009 (ip), vehicle: saline + alcohol): 118 % of control | T/C (dose: 8.0 mg/kg/injection, schedule: Q01DX009 (ip), vehicle: saline with Tween-80): 110 % of control | T/C (dose: 10.66 mg/kg/injection, schedule: Q01DX009 (ip), vehicle: saline + alcohol): 95 % of control | T/C (dose: 12.0 mg/kg/injection, schedule: Q01DX009 (ip), vehicle: saline with Tween-80): 110 % of control | T/C (dose: 16.0 mg/kg/injection, schedule: Q01DX009 (ip), vehicle: saline + alcohol): 91 % of control | T/C (dose: 21.4 mg/kg/injection, schedule: Q01DX009 (ip), vehicle: saline): 110 % of control | T/C (dose: 24.0 mg/kg/injection, schedule: Q01DX009 (ip), vehicle: saline + alcohol): 100 % of control | T/C (dose: 32.0 mg/kg/injection, schedule: Q01DX009 (ip), vehicle: saline): 115 % of control | T/C (dose: 48.0 mg/kg/injection, schedule: Q01DX009 (ip), vehicle: saline): 100 % of control and 120 % of control | T/C (dose: 72.0 mg/kg/injection, schedule: Q01DX009 (ip), vehicle: saline): 113 % of control | T/C (dose: 88.0 mg/kg/injection, schedule: Q01DX009 (ip), vehicle: saline): 95 % of control | T/C (dose: 108.0 mg/kg/injection, schedule: Q01DX009 (ip), vehicle: saline): 95 % of control | T/C (dose: 133.0 mg/kg/injection, schedule: Q01DX009 (ip), vehicle: saline): 100 % of control | T/C [2]: 90 % of control

CC(C)(O)/C=C/C(=O)C(C)(O)C1C(O)CC2(C)C3CC=C4C(CC(O)C(O)C4(C)C)C3(C)C(=O)CC12C (configuration not stated)
T/C (dose: 0.25 mg/kg/injection, schedule: Q01DX010 (ip), vehicle: carboxymethylcellulose (CMC)): 100 % of control | T/C (dose: 0.5 mg/kg/injection, schedule: Q01DX010 (ip), vehicle: carboxymethylcellulose (CMC)): 105 % of control | T/C (dose: 1.0 mg/kg/injection, schedule: Q01DX010 (ip), vehicle: carboxymethylcellulose (CMC)): 95 % of control | T/C (dose: 2.0 mg/kg/injection, schedule: Q01DX010 (ip), vehicle: carboxymethylcellulose (CMC)): 110 % of control

FC(F)(F)c1nc2nc(Cl)c(Cl)nc2n1CCCN1CCOCC1
T/C [5]: 105 % of control | T/C [6]: 115 % of control | T/C [7]: 110 % of control

CCN(CC)CC(C)Nc1ccc(C)c2sc3ccccc3c(=O)c12 (configuration not stated)
T/C (dose: 33.0 mg/kg/injection, schedule: Q04DX003 (ip), vehicle: saline sonified): 118 % of control | T/C (dose: 44.0 mg/kg/injection, schedule: Q01DX009 (ip), vehicle: saline): 159 % of control | T/C (dose: 66.0 mg/kg/injection, schedule: Q01DX009 (ip), vehicle: saline): 200 % of control and 209 % of control | T/C [1]: 190 % of control | T/C (dose: 112.5 mg/kg/injection, schedule: Q04DX003 (ip), vehicle: saline sonified): 154 % of control | T/C (dose: 300.0 mg/kg/injection, schedule: Q04DX003 (ip), vehicle: saline sonified): 163 % of control

O=[N+]([O-])c1ccc(-c2nc3ncccn3n2)cc1
T/C [5]: 90 % of control | T/C [6]: 100 % of control | T/C [7]: 100 % of control

C=CCN(CC=C)C(=O)OCC
T/C [5]: 100 % of control | T/C [6]: 120 % of control | T/C [7]: 104 % of control

COCCOC1=C(N2CC2)C(=O)C(OCCOC)=C(N2CC2)C1=O
T/C (dose: 0.26 mg/kg/injection, schedule: Q01DX009 (ip), vehicle: saline): 99 % of control | T/C (dose: 0.4 mg/kg/injection, schedule: Q01DX009 (ip), vehicle: saline): 108 % of control | T/C (dose: 0.88 mg/kg/injection, schedule: Q01DX009 (ip), vehicle: saline): 163 % of control | T/C (dose: 0.88 mg/kg/injection, schedule: Q04DX003 (ip), vehicle: saline): 121 % of control | T/C (dose: 0.9 mg/kg/injection, schedule: Q01DX009 (ip), vehicle: saline): 108 % of control | T/C (dose: 1.0 mg/kg/injection, schedule: Q01DX009 (ip), vehicle: saline): 171 % of control and 180 % of control | T/C (dose: 1.32 mg/kg/injection, schedule: Q01DX009 (ip), vehicle: saline): 209 % of control | T/C (dose: 1.32 mg/kg/injection, schedule: Q04DX003 (ip), vehicle: saline): 113 % of control | T/C [3]: 223 % of control and 263 % of control and 220 % of control | T/C [4]: 231 % of control | T/C (dose: 3.0 mg/kg/injection, schedule: Q04DX003 (ip), vehicle: saline): 152 % of control | T/C (dose: 3.3 mg/kg/injection, schedule: Q04DX003 (ip), vehicle: saline): 186 % of control | T/C (dose: 4.0 mg/kg/injection, schedule: Q01DX009 (ip), vehicle: saline): 109 % of control and 115 % of control | T/C (dose: 5.0 mg/kg/injection, schedule: Q04DX003 (ip), vehicle: saline): 209 % of control | T/C (dose: 6.25 mg/kg/injection, schedule: Q04DX003 (ip), vehicle: saline): 236 % of control | T/C (dose: 7.5 mg/kg/injection, schedule: Q04DX003 (ip), vehicle: saline): 272 % of control | T/C (dose: 12.5 mg/kg/injection, schedule: Q04DX003 (ip), vehicle: saline): 118 % of control

CS(=O)/C=C(\c1ccccc1)c1cccs1 (configuration not stated)
T/C (dose: 50.0 mg/kg/injection, schedule: Q01DX009 (ip), vehicle: saline with Tween-80): 96 % of control | T/C (dose: 100.0 mg/kg/injection, schedule: Q01DX009 (ip), vehicle: saline with Tween-80): 100 % of control

CCN(CC)CCCC(C)Nc1c2ccc(Cl)cc2nc2cc(Cl)ccc12 (configuration not stated)
T/C (dose: 12.5 mg/kg/injection, schedule: Q01DX009 (ip), vehicle: Klucel (hydroxypropylcellulose) (HPC)): 120 % of control

CC(=O)OC1C(=O)C(C)(C)CSCC1(C)C (configuration not stated)
T/C (dose: 100.0 mg/kg/injection, schedule: Q01DX009 (ip), vehicle: Klucel (hydroxypropylcellulose) (HPC)): 104 % of control | T/C (dose: 200.0 mg/kg/injection, schedule: Q01DX009 (ip), vehicle: Klucel (hydroxypropylcellulose) (HPC)): 95 % of control | T/C (dose: 400.0 mg/kg/injection, schedule: Q01DX009 (ip), vehicle: Klucel (hydroxypropylcellulose) (HPC)): 104 % of control

NC(=O)N/N=C1/CCCC(C(=O)O)C1 (configuration not stated)
T/C (dose: 50.0 mg/kg/injection, schedule: Q01DX001 (ip), vehicle: Klucel (hydroxypropylcellulose) (HPC)): 91 % of control | T/C (dose: 100.0 mg/kg/injection, schedule: Q01DX001 (ip), vehicle: Klucel (hydroxypropylcellulose) (HPC)): 116 % of control | T/C (dose: 200.0 mg/kg/injection, schedule: Q01DX001 (ip), vehicle: Klucel (hydroxypropylcellulose) (HPC)): 91 % of control | T/C (dose: 400.0 mg/kg/injection, schedule: Q01DX001 (ip), vehicle: Klucel (hydroxypropylcellulose) (HPC)): 95 % of control
